Data: patent EP0355039A2, “Methods and means for controlling the stability of proteins” (priority 1988, dated 1990)

Assays:
Type in all cases: biochemical
[1] = biological target: T1, Actinoplanes missouriensis (DSM 43046) D-glucose isomerase (D-xylose isomerase, EC 5.3.1.5) EcoAmi(DSM) GI, wild type (WT-GI) (Actinoplanes missouriensis, UniProt P12851); assay: Glucose isomerase catalytic parameters (D-sorbitol dehydrogenase coupled assay for D-xylose; cysteine-carbazole method for D-glucose)
T1 construct: made in house; host or cells: E. coli K514
T1 sequence (P12851 whole entry): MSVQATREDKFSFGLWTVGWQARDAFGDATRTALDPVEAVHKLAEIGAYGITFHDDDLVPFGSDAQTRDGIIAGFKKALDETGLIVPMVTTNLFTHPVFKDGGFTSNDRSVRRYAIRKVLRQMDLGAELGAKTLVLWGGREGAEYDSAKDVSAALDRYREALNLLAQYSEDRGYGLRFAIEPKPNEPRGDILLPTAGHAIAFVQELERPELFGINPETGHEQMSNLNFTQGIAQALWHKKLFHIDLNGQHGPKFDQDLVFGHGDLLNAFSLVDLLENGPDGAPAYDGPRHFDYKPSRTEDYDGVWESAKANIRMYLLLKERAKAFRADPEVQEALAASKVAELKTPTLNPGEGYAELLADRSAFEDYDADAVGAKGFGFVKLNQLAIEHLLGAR
Method: (§1) The enzymatic activity of glucose isomerase was assayed as described below (1 unit of enzymatic activity produces 1.0 micromole of product -D-xylulose or D-fructose- per minute; therefore, specific activity -spa- is expressed as units per mg of GI enzyme).
(§2) In the D-Sorbitol Dehydrogenase Coupled Assay, enzymatic determination of D-xylulose was performed at 35°C as previously described (Kersters-Hilderson et al., 1987) in 50mM triethanolamine, pH 7.5, 10mM MgSO₄, and 0.1 M xylose, in the presence of ∼ 2 x 10⁻⁸ M D-sorbitol dehydrogenase (L-iditol : NAD oxidoreductase, EC 1.1.1.14), and 0.15mM NADH, except that the incubation buffer also included 1mM ethylenebis(oxyethylenenitrilo)tetraacetic acid (EGTA). Glucose isomerase final concentration in this assay was about 2.5 x 10⁻³ mg/ml, and precisely determined as described above.
(§3) With glucose as a substrate, GI activity can be assayed by measuring the amount of D-fructose produced during the isomerization reaction using the cysteine-carbazole method which is based on the reaction of ketosugars with carbazole in acids to yield a purple product (Dische and Borenfreund, 1951).

[2] = biological target: T2, Actinoplanes missouriensis (DSM 43046) D-glucose isomerase EcoAmi(DSM) GI mutant K253Q (Lys-253 to Gln) (Actinoplanes missouriensis, UniProt P12851, K253Q)
T2 construct: made in house; host or cells: E. coli K514
T2 sequence (P12851 whole entry K253Q): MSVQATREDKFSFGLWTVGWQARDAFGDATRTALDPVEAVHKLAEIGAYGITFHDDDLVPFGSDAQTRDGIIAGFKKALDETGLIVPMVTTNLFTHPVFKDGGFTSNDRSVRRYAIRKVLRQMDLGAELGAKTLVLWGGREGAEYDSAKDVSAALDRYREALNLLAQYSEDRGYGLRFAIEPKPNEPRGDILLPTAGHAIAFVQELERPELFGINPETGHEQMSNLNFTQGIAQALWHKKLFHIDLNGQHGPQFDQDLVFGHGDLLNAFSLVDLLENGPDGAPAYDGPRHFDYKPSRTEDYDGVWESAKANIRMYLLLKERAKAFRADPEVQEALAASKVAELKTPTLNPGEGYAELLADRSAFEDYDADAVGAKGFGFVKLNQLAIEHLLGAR
Method: as §1, §2, §3

[3] = biological target: T3, Actinoplanes missouriensis (DSM 43046) D-glucose isomerase EcoAmi(DSM) GI mutant K253R (Lys-253 to Arg) (Actinoplanes missouriensis, UniProt P12851, K253R)
T3 construct: made in house; host or cells: E. coli K514
T3 sequence (P12851 whole entry K253R): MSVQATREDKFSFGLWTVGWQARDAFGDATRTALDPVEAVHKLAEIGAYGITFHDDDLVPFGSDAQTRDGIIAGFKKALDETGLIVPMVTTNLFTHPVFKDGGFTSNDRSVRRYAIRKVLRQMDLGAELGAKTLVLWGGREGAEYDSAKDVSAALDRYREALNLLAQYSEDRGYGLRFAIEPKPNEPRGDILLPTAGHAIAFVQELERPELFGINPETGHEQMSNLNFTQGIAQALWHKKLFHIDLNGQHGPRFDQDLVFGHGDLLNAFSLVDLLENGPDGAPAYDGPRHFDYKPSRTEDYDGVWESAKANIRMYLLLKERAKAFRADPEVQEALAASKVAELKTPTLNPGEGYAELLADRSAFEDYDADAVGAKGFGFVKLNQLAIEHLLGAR
Method: as §1, §2, §3

[4] = D-xylose as substrate, coupled assay, 35°C, 50mM triethanolamine pH 7.5, 10mM MgSO4

Substance | Vmax (Glucose) ([1]; D-glucose as substrate) | Vmax (Glucose) ([2]; D-glucose as substrate) | Vmax (Glucose) ([3]; D-glucose as substrate) | Km [1, 4] [mM] | Vmax (Xylose) [1, 4] | Km [2, 4] [mM] | Vmax (Xylose) [2, 4] | Km [3, 4] [mM] | Vmax (Xylose) [3, 4]
D-glucose | 30.6 units per mg of enzyme | 29.0 units per mg of enzyme | 27.2 units per mg of enzyme |  |  |  |  |  | 
D-xylose |  |  |  | 4.8 | 24.2 units per mg of enzyme | 4.4 | 15.1 units per mg of enzyme | 5.3 | 24.6 units per mg of enzyme
